Assay results taken from publication PMC8330742, “New benzothieno[2,3-c]pyridines as non-steroidal CYP17 inhibitors: design, synthesis, anticancer screening, apoptosis induction, and in silico ADME profile studies” (Journal of Enzyme Inhibition and Medicinal Chemistry, 2021).

Key:
CCRF-CEM = test: NCI-60 SRB screen; assay type: cell-based; settings: Homo sapiens, single dose 10^−5 M, Leukaemia, read-out: Growth inhibition (%)
HL-60(TB) = test: NCI-60 SRB screen; assay type: cell-based, human; settings: Homo sapiens; single dose 10^−5 M; HL-60(TB), Leukaemia; read-out: Growth inhibition (%)
K-562 = test: NCI-60 SRB screen; assay type: cell-based, human; settings: Homo sapiens, K562; single dose 10^−5 M; K-562, Leukaemia; read-out: Growth inhibition (%)
MOLT-4 = test: NCI-60 SRB screen; assay type: cell-based; settings: Homo sapiens; single dose 10^−5 M; MOLT-4, Leukaemia; read-out: Growth inhibition (%)
SR = test: NCI-60 SRB screen; assay type: cell-based; settings: Homo sapiens, single dose 10^−5 M, Leukaemia, read-out: Growth inhibition (%)
A549/ATCC = test: NCI-60 SRB screen; assay type: cell-based, human; settings: Homo sapiens, single dose 10^−5 M, Non-small cell lung carcinoma, read-out: Growth inhibition (%)
EKVX = test: NCI-60 SRB screen; assay type: cell-based, human; settings: Homo sapiens, single dose 10^−5 M, Non-small cell lung carcinoma, read-out: Growth inhibition (%)
HOP-62 = test: NCI-60 SRB screen; assay type: cell-based, human; settings: Homo sapiens; single dose 10^−5 M; HOP-62, Non-small cell lung carcinoma; read-out: Growth inhibition (%)
HOP-92 = test: NCI-60 SRB screen; assay type: cell-based, human; settings: Homo sapiens; single dose 10^−5 M; HOP-92, Non-small cell lung carcinoma; read-out: Growth inhibition (%)
NCI-H226 = test: NCI-60 SRB screen; assay type: cell-based, human; settings: Homo sapiens; single dose 10^−5 M; NCI-H226, Non-small cell lung carcinoma; read-out: Growth inhibition (%)
NCI-H23 = test: NCI-60 SRB screen; assay type: cell-based, human; settings: Homo sapiens; single dose 10^−5 M; NCI-H23, Non-small cell lung carcinoma; read-out: Growth inhibition (%)
NCI-H322M = test: NCI-60 SRB screen; assay type: cell-based, human; settings: Homo sapiens, single dose 10^−5 M, Non-small cell lung carcinoma, read-out: Growth inhibition (%)
NCI-H460 = test: NCI-60 SRB screen; assay type: cell-based, human; settings: Homo sapiens; single dose 10^−5 M; NCI-H460, Non-small cell lung carcinoma; read-out: Growth inhibition (%)
NCI-H522 = test: NCI-60 SRB screen; assay type: cell-based, human; settings: Homo sapiens; single dose 10^−5 M; NCI-H522, Non-small cell lung carcinoma; read-out: Growth inhibition (%)
COLO 205 = test: NCI-60 SRB screen; assay type: cell-based, human; settings: Homo sapiens; single dose 10^−5 M; COLO 205, Colon cancer; read-out: Growth inhibition (%)
HCC-2998 = test: NCI-60 SRB screen; assay type: cell-based, human; settings: Homo sapiens; single dose 10^−5 M; HCC-2998, Colon cancer; read-out: Growth inhibition (%)
HCT-116 = test: NCI-60 SRB screen; assay type: cell-based, human; settings: Homo sapiens; single dose 10^−5 M; HCT-116, Colon cancer; read-out: Growth inhibition (%)
HCT-15 = test: NCI-60 SRB screen; assay type: cell-based, human; settings: Homo sapiens; single dose 10^−5 M; HCT-15, Colon cancer; read-out: Growth inhibition (%)
HT-29 = test: NCI-60 SRB screen; assay type: cell-based; settings: Homo sapiens; single dose 10^−5 M; HT-29, Colon cancer; read-out: Growth inhibition (%)
KM12 = test: NCI-60 SRB screen; assay type: cell-based, human; settings: Homo sapiens; single dose 10^−5 M; KM12, Colon cancer; read-out: Growth inhibition (%)
SW-620 = test: NCI-60 SRB screen; assay type: cell-based; settings: Homo sapiens; single dose 10^−5 M; SW-620, Colon cancer; read-out: Growth inhibition (%)
SF-268 = test: NCI-60 SRB screen; assay type: cell-based, human; settings: Homo sapiens; single dose 10^−5 M; SF-268, CNS cancer; read-out: Growth inhibition (%)
SF-295 = test: NCI-60 SRB screen; assay type: cell-based, human; settings: Homo sapiens; single dose 10^−5 M; SF-295, CNS cancer; read-out: Growth inhibition (%)
LOX IMVI = test: NCI-60 SRB screen; assay type: cell-based, human; settings: Homo sapiens, single dose 10^−5 M, Melanoma, read-out: Growth inhibition (%)
MALME-3M = test: NCI-60 SRB screen; assay type: cell-based, human; settings: Homo sapiens, single dose 10^−5 M, Melanoma, read-out: Growth inhibition (%)
M14 = test: NCI-60 SRB screen; assay type: cell-based, human; settings: Homo sapiens; single dose 10^−5 M; M14, Melanoma; read-out: Growth inhibition (%)
MDA-MB-435 = test: NCI-60 SRB screen; assay type: cell-based; settings: Homo sapiens, MDA-MB-435, read-out: Growth inhibition (%)
SK-MEL-2 = test: NCI-60 SRB screen; assay type: cell-based, human; settings: Homo sapiens; single dose 10^−5 M; SK-MEL-2, Melanoma; read-out: Growth inhibition (%)
SK-MEL-28 = test: NCI-60 SRB screen; assay type: cell-based; settings: Homo sapiens; single dose 10^−5 M; SK-MEL-28, Melanoma; read-out: Growth inhibition (%)
SK-MEL-5 = test: NCI-60 SRB screen; assay type: cell-based, human; settings: Homo sapiens; single dose 10^−5 M; SK-MEL-5, Melanoma; read-out: Growth inhibition (%)
UACC-257 = test: NCI-60 SRB screen; assay type: cell-based, human; settings: Homo sapiens; single dose 10^−5 M; UACC-257, Melanoma; read-out: Growth inhibition (%)
UACC-62 = test: NCI-60 SRB screen; assay type: cell-based, human; settings: Homo sapiens; single dose 10^−5 M; UACC-62, Melanoma; read-out: Growth inhibition (%)
IGROV1 = test: NCI-60 SRB screen; assay type: cell-based, human; settings: Homo sapiens, IGROV-1; single dose 10^−5 M; IGROV1, Ovarian cancer; read-out: Growth inhibition (%)
OVCAR-3 = test: NCI-60 SRB screen; assay type: cell-based, human; settings: Homo sapiens; single dose 10^−5 M; OVCAR-3, Ovarian cancer; read-out: Growth inhibition (%)
OVCAR-4 = test: NCI-60 SRB screen; assay type: cell-based, human; settings: Homo sapiens; single dose 10^−5 M; OVCAR-4, Ovarian cancer; read-out: Growth inhibition (%)
OVCAR-8 = test: NCI-60 SRB screen; assay type: cell-based, human; settings: Homo sapiens; single dose 10^−5 M; OVCAR-8, Ovarian cancer; read-out: Growth inhibition (%)
NCI/ADR-RES = test: NCI-60 SRB screen; assay type: cell-based, human; settings: Homo sapiens, single dose 10^−5 M, Ovarian cancer, read-out: Growth inhibition (%)
SK-OV-3 = test: NCI-60 SRB screen; assay type: cell-based, human; settings: Homo sapiens; single dose 10^−5 M; SK-OV-3, Ovarian cancer; read-out: Growth inhibition (%)
786-0 = test: NCI-60 SRB screen; assay type: cell-based; settings: Homo sapiens; single dose 10^−5 M; 786-0, Renal cancer; read-out: Growth inhibition (%)
ACHN = test: NCI-60 SRB screen; assay type: cell-based; settings: Homo sapiens, single dose 10^−5 M, Renal cancer, read-out: Growth inhibition (%)
CAKI-1 = test: NCI-60 SRB screen; assay type: cell-based, human; settings: Homo sapiens; single dose 10^−5 M; CAKI-1, Renal cancer; read-out: Growth inhibition (%)
SN12C = test: NCI-60 SRB screen; assay type: cell-based, human; settings: Homo sapiens, SN12C; single dose 10^−5 M; SN 12 C, Renal cancer; read-out: Growth inhibition (%)
TK-10 = test: NCI-60 SRB screen; assay type: cell-based, human; settings: Homo sapiens; single dose 10^−5 M; TK-10, Renal cancer; read-out: Growth inhibition (%)
UO-31 = test: NCI-60 SRB screen; assay type: cell-based, human; settings: Homo sapiens; single dose 10^−5 M; UO-31, Renal cancer; read-out: Growth inhibition (%)
[1] = system: panel of 60 cancer cell lines; test: NCI-60 SRB screen, mean or range over the panel; assay type: cell-based, human; settings: Homo sapiens; mean over the cell lines; single dose 10^−5 M; read-out: Mean growth inhibition (%)

With `N#CC1=C(Cl)NC(c2cccc([N+](=O)[O-])c2)c2sc3c(F)cccc3c21` (stereo not drawn) [Compound 7b, 3-Chloro-4-cyano-8-fluoro-1-(3-nitrophenyl)-1,2-dihydro[1]benzothieno [2,3-c]pyridine] the inhibition at 10 µM (CCRF-CEM) was 3.22%, the inhibition at 10 µM (HL-60(TB)) was 1.47% and the inhibition at 10 µM (K-562) was 8.8%. For the same compound, the inhibition at 10 µM (MOLT-4) was 7.93%, the inhibition at 10 µM (SR) was 15.9% and the inhibition at 10 µM (A549/ATCC) was -10.1%. The inhibition at 10 µM (EKVX) was -1.36%, the inhibition at 10 µM (HOP-62) was 9.67% and the inhibition at 10 µM (HOP-92) was 10.4%. For the same compound, the inhibition at 10 µM (NCI-H226) was 9.35%, the inhibition at 10 µM (NCI-H23) was 4.25% and the inhibition at 10 µM (NCI-H322M) was -3.17%. It also gave an inhibition at 10 µM (NCI-H460) of 2.14%, an inhibition at 10 µM (NCI-H522) of -1.38% and an inhibition at 10 µM (COLO 205) of -14.6%. It also gave an inhibition at 10 µM (HCC-2998) of -18.2%, an inhibition at 10 µM (HCT-116) of 11.7% and an inhibition at 10 µM (HCT-15) of -7.25%. The inhibition at 10 µM (HT-29) was -3.29%, the inhibition at 10 µM (KM12) was -0.12% and the inhibition at 10 µM (SW-620) was 3.78%. The inhibition at 10 µM (SF-268) was 6.82%, the inhibition at 10 µM (SF-295) was -4.69% and the inhibition at 10 µM (LOX IMVI) was 1.46%. For the same compound, the inhibition at 10 µM (MALME-3M) was -2.31%, the inhibition at 10 µM (M14) was -5.17% and the inhibition at 10 µM (MDA-MB-435) was -8.18%. For the same compound, the inhibition at 10 µM (SK-MEL-2) was -2.07%, the inhibition at 10 µM (SK-MEL-28) was -11.2% and the inhibition at 10 µM (SK-MEL-5) was -20.1%. It also gave an inhibition at 10 µM (UACC-257) of -9.77%, an inhibition at 10 µM (UACC-62) of 8.84% and an inhibition at 10 µM (IGROV1) of 15.6%. The inhibition at 10 µM (OVCAR-3) was -1.67%, the inhibition at 10 µM (OVCAR-4) was -3.81% and the inhibition at 10 µM (OVCAR-8) was -4.49%. It also gave an inhibition at 10 µM (NCI/ADR-RES) of 1.73%, an inhibition at 10 µM (SK-OV-3) of 2.24% and an inhibition at 10 µM (786-0) of -13.5%. The inhibition at 10 µM (ACHN) was 4.44%, the inhibition at 10 µM (CAKI-1) was 19.8% and the inhibition at 10 µM (SN12C) was 4.43%. For the same compound, the inhibition at 10 µM (TK-10) was -53.8%, the inhibition at 10 µM (UO-31) was 32.5% and the inhibition at 10 µM [1] was 2.14%.
